The record followed here is article PMC11984924, “Dipeptidic Phosphonates: Potent Inhibitors of Pseudomonas aeruginosa Elastase B Showing Efficacy in a Murine Keratitis Model” (Advanced Science, 2025).

Molecules are shown by their SMILES.

The nature of data set [1]: Metabolic stability in mouse liver S9 fraction. It counts as in vitro ADME. To be noted: C57BL/6, liver S9 fraction; mouse liver S9, 1 µM. The protocol: page 57: 3. Biological evaluation 3.1 In vitro inhibition assays […] MMPs, TACE). […] inhibitor screening kits were purchased from Sigma-Aldrich (Saint Louis, MO). MMPs along with the SensoLyte 520 Generic MMP Activity Kit Fluorimetric were purchased from AnaSpec (Fremont, CA, USA). The assays were performed according to the guidelines of the respective manufacturer. Fluorescence signals were measured using a CLARIOstar plate reader (BMG Labtech, Ortenberg, Germany). 3.2 Kinetic solubility […] well were transferred into another 96-well plate and mixed with 148.5 µL of PBS. Plates were shaken for 5 min at 600 rpm at room temperature (r.t.), and the absorbance at 620 nm was measured. Absorbance values were normalized by blank subtraction and plotted using GraphPad Prism 8.4.2 (GraphPad Software, San Diego, CA, USA). Solubility (S) was […] 3.3 Lipophilicity determination LogD7.4 was analyzed using an HPLC−based method. The UV retention time of reference […] Linear […] Analysis was performed using a Vanquish Flex HPLC system with variable wavelength detector (Thermo Fisher, Dreieich, Germany) with the following conditions: EC150/2 NUCLEODUR C18 Pyramid column, 5 μM (Macherey Nagel, Düren, Germany); eluent A: 50 mM NH4OAc pH 7.4, eluent B: acetonitrile, and flow: 0.6 mL/min. […] 3.4 Metabolic stability in liver S9 fractions For the evaluation of combined phase I and phase II metabolic stability, the compound (1 μM) was incubated with 1 mg/mL pooled mouse liver S9 fraction (C57BL/6, Xenotech, Kansas Cit y, USA) or human liver S9 fraction (Corning, USA), 2 mM NADPH, 1 mM UDPGA, 10 mM MgCl2, 5 mM GSH and 0.1 mM PAPS at 37 °C for 120 min. The metabolic stability of testosterone, verapamil and ketoconazole were determined in parallel to confirm the enzymatic activity of S56 page 58: mouse S9 fractions, for human S9 testosterone, diclofenac and propranolol were used. The incubation was stopped after defined time points by precipitation of aliquots of S9 enzymes […] Samples were stored on ice until the end of the incubation and precipitated protein was removed by centrifugation (15 min, 4 °C, 4,000 g). Concentration of the remaining test compound at the different time points was analyzed by HPLC-MS/MS (TSQ Quantum Access MAX, Thermo Fisher, Dreieich, Germany) and used to determine half -life (t1/2) and intrinsic clearance (Clint). Species profiling was conducted as above using 0.5 mg/mL pooled mouse, rat or minipig liver microsomes (Xenotech, Kansas City, USA) with 2 mM NADPH and 10 mM MgCl2 and testosterone, verapamil and ketoconazole as reference compounds. 3.5 Plasma stability To determine stability in plasma, the compound (1 µM) was incubated with pooled CD -1 mouse/human/Wistar rat or Göttingen minipig plasma (Neo Biotech, Nanterre, France). Samples were taken by mixing aliquots with 4 volumes of acetonitrile containing internal standard (125 nM diphenhydramine). The plasma stability of procain, propantheline and diltiazem were determined in parallel to confirm the enzymatic activity. Samples were stored on ice until the end of the incubation and precipitated protein was removed by centrifugation (15 min, 4 °C, 4,000 g, two centrifugation steps). Concentration of the remaining test compound at the different time points was analyzed by HPLC-MS/MS (TSQ Quantum Access MAX, Thermo Fisher, Dreieich, Germany) and used to determine half-life (t1/2). Table S2: Additional in vitro ADMET data for selected dipeptides. n.d.: not determined. […] Compound Solubility PBS pH 7.4 [µM] Mouse Human Mouse Human […] S57

In the next data set the test system is HEK293 cells. The data set is described as follows: Cytotoxicity HEK293. In kind it is cell-based. The settings on record: Homo sapiens, HEK293, read-out: HEK293 % inhibition at 100 µM (metabolic activity), 48 hours. On the procedure: HepG2 (human hepatocellular carcinoma), HEK293 (human embryonal kidney) and A549
(human lung carcinoma) cells (2x10^5 cells per well) were seeded in 24-well in flat-bottomed
plates. Culturing of cells, incubations and OD measurements were performed as described
previously with small modifications.[14] Twenty-four hours after seeding the cells the incubation
was started by the addition of compounds in a final DMSO concentration of 1%. The living cell
mass was determined after 48 hours in a PHERAstar microplate reader (BMG labtech,
Ortenberg, Germany). Two independent measurements were performed for each compound.

A further data set deals with T1, MMP-3 (Homo sapiens, UniProt P08254).
T1 construct: purchased AnaSpec (Fremont, CA, USA)
Description: MMP-3 inhibition (off-target). In kind it is biochemical. The settings on record: read-out: MMP-3 % inhibition at 100 µM. On the procedure:
3.1 In vitro inhibition assays
LasB was expressed and purified as described previously.[3] In vitro inhibition assays (LasB, MMPs, TACE). All in vitro inhibition assays were performed as described previously.[10] TACE inhibitor screening kits were purchased from Sigma-Aldrich (Saint Louis, MO). MMPs along with the SensoLyte 520 Generic MMP Activity Kit Fluorimetric were purchased from AnaSpec (Fremont, CA, USA). The assays were performed according to the guidelines of the respective manufacturer. Fluorescence signals were measured using a CLARIOstar plate reader (BMG Labtech, Ortenberg, Germany). […]
3.8 Test against zinc metalloproteases MMP1–3 and TACE (ADAM17), and testing of
We selected a panel of human off -targets, including three human matrix metalloproteases (MMP-1, -2 and -3) and TACE (ADAM-17). These assays were performed as described previously.[3] The TACE inhibitor screening kit was purchased from Sigma -Aldrich (Saint Louis, MO). MMPs along with the SensoLyte 520 Generic MMP Activity Kit Fluorimetric were purchased from AnaSpec (Fremont, CA, USA). The assays were performed according to the guidelines of the respective manufacturer. Fluorescence signals were measured using a CLARIOstar plate reader (BMG Labtech, Ortenberg, Germany). […]
Table S6: Percent (%) inhibition of three MMPs (1 –3) and TACE (ADAM17) in presence of selected LasB inhibitors at 100 µM. Results are means and SD of at least two independent experiments. […]
Compound [% inhibition at [% inhibition at [% inhibition at [% inhibition at 100

T1 sequence (P08254 100-477): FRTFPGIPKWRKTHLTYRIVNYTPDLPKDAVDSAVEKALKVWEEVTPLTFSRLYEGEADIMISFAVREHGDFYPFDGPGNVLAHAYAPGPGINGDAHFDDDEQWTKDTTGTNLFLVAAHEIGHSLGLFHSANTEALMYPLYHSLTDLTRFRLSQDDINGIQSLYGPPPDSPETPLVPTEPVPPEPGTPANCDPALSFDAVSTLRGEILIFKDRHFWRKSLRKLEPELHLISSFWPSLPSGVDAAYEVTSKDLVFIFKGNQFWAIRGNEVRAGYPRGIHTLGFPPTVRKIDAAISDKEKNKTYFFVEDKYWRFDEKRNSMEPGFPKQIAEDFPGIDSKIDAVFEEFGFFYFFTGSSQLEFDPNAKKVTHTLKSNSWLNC

For orientation: microsomal CLint means the capacity of the preparation to metabolise the compound, expressed as a volume cleared per time. Low readings indicate slow turnover, high ones rapid turnover. What is called inhibition is the relative decrease from the control value, in per cent. `CC(=O)c1ccc(NC(=O)[C@@H](NC(=O)[C@@H](CC(C)C)P(=O)(O)O)C(C)C)cc1` [(R)‐30] showed a microsomal CLint at 1 µM in data set [1] below 5.8 µL/min/mg. The inhibition at 100 µM with HEK293 cells and at MMP-3 was below 10% in each case.

In turn, `CC(C)CC(C(=O)N[C@H](C(=O)Nc1ccc(Cl)c(Cl)c1)C1CCCCC1)P(=O)(O)O` (stereo partly drawn) [compound 14] gave a microsomal CLint at 1 µM in data set [1] below 5.8 µL/min/mg. Besides, the inhibition at 100 µM was 51 ± 4% in the data set on HEK293 cells and below 10% on MMP-3.

`CC(=O)c1ccc(NC(=O)[C@@H](NC(=O)C(CC(C)C)P(=O)(O)O)C(C)C)cc1` (stereo partly drawn) [compound 30] returned a microsomal CLint at 1 µM in data set [1] below 5.8 µL/min/mg. Besides, the inhibition at 100 µM with HEK293 cells and at MMP-3 was below 10% in each case.

`CC(C)CC(C(=O)N[C@H](C(=O)Nc1ccc(Cl)c(Cl)c1)C(C)C)P(=O)(O)O` (stereo partly drawn) [compound 9] came in with a microsomal CLint at 1 µM in data set [1] below 5.8 µL/min/mg. For the same compound, the inhibition at 100 µM in the data set on HEK293 cells and on MMP-3 was below 10% in each case.

Turning to `CC(C)C[C@H](C(=O)N[C@H](C(=O)Nc1ccc(-n2ccnc2)cc1)C(C)C)P(=O)(O)O` [(R)‐36], the microsomal CLint at 1 µM in data set [1] was below 5.8 µL/min/mg. The results for the inhibition at 100 µM with HEK293 cells and on MMP-3 were 11 ± 9% and below 10%, respectively.

Compound `CC(C)CC(C(=O)N[C@H](C(=O)Nc1ccc(Cl)c(Cl)c1)C1CCC1)P(=O)(O)O` (stereo partly drawn) [compound 13] gave a microsomal CLint at 1 µM in data set [1] below 5.8 µL/min/mg. Moreover, the inhibition at 100 µM with HEK293 cells and at MMP-3 was below 10% throughout.
